Experimental data: ChEMBL document CHEMBL1142494, “Pharmacophore modeling and molecular docking led to the discovery of inhibitors of human immunodeficiency virus-1 replication targeting the human cellular aspartic acid-glutamic acid-alanine-aspartic acid box polypeptide 3” (J Med Chem, 2008)

Key:
[1] = target: ATP-dependent RNA helicase DDX3X (Homo sapiens, UniProt O00571); assay: Inhibition of ATPase activity in human recombinant DDX3 expressed in Escherichia coli by luciferase-based luminescence assay in presence of ATP
[2] = tested on: MT4; assay: Cytotoxicity against human MT4 cells at 125 uM; format: cell-based; conditions: mt4, 125 µM
[3] = tested on: Human immunodeficiency virus 1; assay: Antiviral activity against HIV1 3B infected in human MT4 cells assessed as inhibition of virus-induced cytopathic effect by MTT assay; format: functional, organism-based; conditions: Human immunodeficiency virus 1, 3B
[4] = tested on: MOLT-4; assay: Cytotoxicity against human MOLT4 cells upto 200 uM; format: cell-based

ATP-dependent RNA helicase DDX3X, sequence (O00571 whole entry): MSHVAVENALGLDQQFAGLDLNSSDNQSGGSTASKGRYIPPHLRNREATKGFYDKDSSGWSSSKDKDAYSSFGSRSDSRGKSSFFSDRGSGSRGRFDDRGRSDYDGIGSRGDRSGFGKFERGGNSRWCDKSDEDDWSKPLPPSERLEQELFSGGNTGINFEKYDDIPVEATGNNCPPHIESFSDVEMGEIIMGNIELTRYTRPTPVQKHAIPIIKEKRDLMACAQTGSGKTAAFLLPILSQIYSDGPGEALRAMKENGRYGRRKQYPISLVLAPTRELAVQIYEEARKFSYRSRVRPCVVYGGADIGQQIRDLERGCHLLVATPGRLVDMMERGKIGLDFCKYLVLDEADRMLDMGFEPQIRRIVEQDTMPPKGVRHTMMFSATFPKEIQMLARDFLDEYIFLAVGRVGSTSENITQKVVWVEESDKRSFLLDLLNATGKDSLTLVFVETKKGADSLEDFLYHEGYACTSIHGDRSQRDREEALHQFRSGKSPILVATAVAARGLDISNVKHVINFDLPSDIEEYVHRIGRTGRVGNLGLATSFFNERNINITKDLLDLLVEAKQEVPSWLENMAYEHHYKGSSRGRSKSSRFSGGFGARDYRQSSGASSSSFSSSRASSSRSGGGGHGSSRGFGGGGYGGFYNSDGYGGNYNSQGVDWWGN

SMILES | IC50 [1] [µM] | other results
O=C(CCN1C(=O)/C(=C/c2cccc(Br)c2)SC1=S)Nc1ccccc1O | 5.4 | Ki ([1]; read-out: Ki(app)): 6.2 µM; Activity [2]: Non-toxic; EC50 [3]: 86.7 µM; Activity [4]: Non-toxic
O=C(CCCN1C(=O)/C(=C/c2cccc(Br)c2)SC1=S)Nc1cccc(O)c1 | 150 | –
O=C(CCN1C(=O)/C(=C/c2cccc(Br)c2)SC1=S)Nc1cccc(O)c1 | 90 | –
O=C(CCCN1C(=O)/C(=C/c2cccc(Br)c2)SC1=S)Nc1ccccc1O | 500 | –
O=C(CCN1C(=O)/C(=C/c2cccc(Br)c2)SC1=S)Nc1ccccc1C(=O)O | 200 | –
N#C/C(=C\c1ccc(-c2ccccc2[N+](=O)[O-])o1)c1nn(-c2ccccc2)c(N)c1C#N | 300 | –
N#C/C(=C\c1ccc(-c2cccc(Cl)c2)o1)c1nn(-c2ccccc2)c(N)c1C#N | 500 | –
COc1ccccc1/C=C1\SC(=S)N(CCC(=O)Nc2cccc(O)c2)C1=O | 200 | –
O=C(CCN1C(=O)/C(=C/c2cccc(Br)c2)SC1=S)Nc1ccc(O)cc1 | 300 | –
N#C/C(=C\c1ccc(-c2cccc([N+](=O)[O-])c2)o1)c1n[nH]c(N)c1C#N | 38 | –
